Patent US20100055168A1, “CATIONIC LIPIDS AND USES THEREOF” (ABBOTT LABORATORIES, priority 2008, published 2010)

Legend:
Format in all cases: physicochemical
Conditions in all cases: Lipid:siRNA 25:1
[1] = Ribogreen assay for siRNA encapsulation efficiency of Lipid-Based Particles
Description: The mixing solution of cationic lipids, cholesterol, non-cationic lipids and PEG-lipids was prepared in ethanol (total concentration at 10 mg/mL). siSTABLE (purchased from ThermoFisher) (sense-5′ GGGGAAAGCUGGCAAGAUUUU-3′ SEQ ID NO: 1) antisense-5′-AAUCUUGCCAGCUUUCCCCUU-3′ SEQ ID NO: 2) % stock solution was prepared in 10 mg/mL of solution by dissolving 10 mg siRNA in 1 mL of RNAse-free UltraPure Water. The calculated amount of siRNA solution was added to 1 mL of citrate buffer (pH 4.0, 20 mM), to provide an siRNA concentration of 0.2 mg/mL, and warmed to 60° C. The calculated amount of lipid solution was warmed to 60° C., transferred to a 0.5 mL syringe with 28½ gauge needle, and injected into the citrate buffer with stirring at 60° C. After 3 minutes, 3 mL of PBS solution at room temperature (pH 7.4) was added into the lipid mixture with stirring. The Lipid-Based Particle solution was cooled to room temperature.
(§1) The siRNA concentrations were measured using Quanti-iT RiboGreen RNA reagent (Molecular Probes, (R11490)). Vesicle sizes were characterized by dynamic light scattering with a DynaPro™ Plate Reader (Wyatt Technology) in 96-well half-area UV plate (Coring) after diluting the formulation sample (20 μL) in phosphate buffered saline (80 μL) at a pH of about 7-8. A 1% agarose gel-based assay was used for analyzing nuclease degradation and protection. Encapsulation efficiency (EE) was calculated using data obtained from a RiboGreen assay.
RNA concentration and encapsulation efficiency were determined using a Quant-iT® Ribogreen RNA reagent and kit available from Invitrogen. The siRNA was released from the Lipid-Based Particle using one of the following reagents: ethanol, Triton X-100, or phenol/chloroform. The siRNA concentration is quantified using fluorescent reading at 480 nm/520 nm.
(§2) A round bottom flask was submerged into a 65° C. water bath. Citrate buffer (37.5 ml) of pH 4.0 was pipetted into the flask. The solution was stirred by a magnetic stirring bar at a speed of 900 rpm. Both the pH 4.0 citrate buffer and the lipid solution were pre-warmed in the 65° C. water bath for about 3 minutes. A siRNA solution (0.5 ml) was pipetted into the pH 4.0 citrate buffer. The 12.5 ml lipid mixture solution was injected through a 27 gauge needle into the citrate buffer in about 30 seconds. The needle tip was inserted into the solution during the injection. The resulting solution was stirred for 5 minutes at a speed of 900 rpm. The flask was pulled up from the water bath and a 50 ml pH 7.4 PBS buffer was added into the flask. The final solution was further mixed at a speed of 900 rpm for 5 minutes. For the diafiltration process, a dialysis filter (Millipore, 100K, Cat #PXB100C50) was used to remove ethanol in the above solution. When the volume was reduced to 20 ml during the initial diafiltration, 20 ml of pH 7.4 PBS was added to the sample solution. The diafiltration was continued until the volume was reduced to 20 ml. The diafiltration process was repeated 4 times. The volume of the sample solution was reduced to about 12 ml and pH 7.4 PBS was added to make the final volume of 15 ml. The 15 ml solution was filtered sequentially through the 0.45 and 0.22 μm sterile PVDF membrane filters (Millipore) and immediately transferred into a sterile vial.

[2] = Particle sizing assay of in vitro formulations (dynamic light scattering, DynaPro plate reader)
Description: as §1
Particle sizes and size distributions (PDI) were characterized by using dynamic light scattering (DLS). A DLS plate reader (Dynapro™, Wyatt Technology) was used for the DLS measurement. This DLS plate reader uses an 830 nm laser and the scattering angle is 158°. It also can control temperature from 4° C. to 70° C. A 96-well format was employed for the samples.
Samples for DLS analysis were prepared by mixing 20 μL of each sample stock solution with 80 μL PBS directly in the 96-well plate (#3697, Coming). Sample mixing was accomplished using a microplate shaker (Orbis, Mikura Ltd.). Plates were read at 20° C. with an acquisition time of 50 seconds for each sample, and data was analyzed with Wyatt Technology's Dynamics V6 software. To rule out potential multiple scattering artifacts, a second plate at […] reduced sample concentrations was independently prepared by mixing 5 μL stock solutions with 95 μL PBS. Under our experimental conditions the results at the two concentrations were very similar, and the final reported result for each sample represents the average of values obtained from the two plates.

[3] = Particle sizing assay of in vivo formulations (Zetasizer Nano ZS)
Description: as §2
For measurements of particle sizes and size distributions (PDI), lipid-based particles were prepared as described above. The particle solution (60 μL) was pipetted into a disposable cuvette (UVette, Eppendorf, cat #952010051) and measured in the “General Purpose” mode. Attenuator and position were optimized by the device. Measurements were performed using a Zetasizer Nano ZS (Malvern Instruments) equipped with a 4 mW He—Ne laser at a wavelength of 633 nm at 25° C. Scattered light was detected at a 173° backward scattering angle. The viscosity and refractive index of water at 25° C. was used for data analysis with the Dispersion Technology Software 5.00 (Malvern Instruments).

[4] = in vitro formulation a: Cationic lipid/Example 56/DSPC/Chol 45/10/15/30 wt %
[5] = in vitro formulation b: Cationic lipid/PEG-Chol/DSPC/Chol 45/10/15/30 wt %
[6] = in vivo formulation A: Cationic lipid/Example 58/DSPC/Chol 45/10/15/30 wt %
[7] = in vivo formulation D: Cationic lipid/PEG-DMPE/PEG-DSPE/DSPC/Chol 44/4.5/4.5/14/33 wt %

SMILES | % Encapsulation Efficiency [1, 4] [%] | Size [2, 4] [nm] | % Encapsulation Efficiency [1, 5] [%] | Size [2, 5] [nm] | also measured
CCCCC/C=C\C/C=C\CCCCCCCCOCC(COCCCCCCCC/C=C\C/C=C\CCCCC)NCc1cccc(CN2CCN(C)CC2)c1 [Example 15, N-(3-((4-methylpiperazin-1-yl)methyl)benzyl)-N-(2-((9Z,12Z)-octadeca-9,12-dienyloxy)-1-(((9Z,12Z)-octadeca-9,12-dienyloxy)methyl)ethyl)amine] | 96.2 | 116 |  |  | 
CCCCC/C=C\C/C=C\CCCCCCCCOCC(COCCCCCCCC/C=C\C/C=C\CCCCC)NCCN1CCN(C)CC1 [Example 8, N-(2-(4-methylpiperazin-1-yl)ethyl)-N-(2-((9Z,12Z)-octadeca-9,12-dienyloxy)-1-(((9Z,12Z)-octadeca-9,12-dienyloxy)methyl)ethyl)amine] |  |  | 81.8 | 107.6 | 
CCCCC/C=C\C/C=C\CCCCCCCCOCC(COCCCCCCCC/C=C\C/C=C\CCCCC)N(C)Cc1cccc(CN2CCCC2)c1 [Example 18, N-methyl-N-(2-((9Z,12Z)-octadeca-9,12-dienyloxy)-1-(((9Z,12Z)-octadeca-9,12-dienyloxy)methyl)ethyl)-N-(3-(pyrrolidin-1-ylmethyl)benzyl)amine] | 96.7 | 122 |  |  | 
CCCCC/C=C\C/C=C\CCCCCCCCOCC(COCCCCCCCC/C=C\C/C=C\CCCCC)N1CCN(CCN2CCCC2)CC1 [Example 52, 1-(2-[(9Z,12Z)-octadeca-9,12-dienyloxy]-1-{[(9Z,12Z)-octadeca-9,12-dienyloxy]methyl}ethyl)-4-(2-pyrrolidin-1-ylethyl)piperazine] | 77.9 | 111.6 |  |  | 
CCCCC/C=C\C/C=C\CCCCCCCCOCC(COCCCCCCCC/C=C\C/C=C\CCCCC)N1CCN(CCn2ccnc2)CC1 [Example 19, 1-(2-(1H-imidazol-1-yl)ethyl)-4-(2-((9Z,12Z)-octadeca-9,12-dienyloxy)-1-(((9Z,12Z)-octadeca-9,12-dienyloxy)methyl)ethyl)piperazine] | 97.0 | 118 |  |  | 
CCCCC/C=C\C/C=C\CCCCCCCC(=O)OCC(COC(=O)CCCCCCC/C=C\C/C=C\CCCCC)N1CCN(C)CC1 [Example 21, (9Z,9′Z,12Z,12′Z)-2-(4-methylpiperazin-1-yl)propane-1,3-diyl dioctadeca-9,12-dienoate] | 96.6 | 117.2 |  |  | 
CCCCC/C=C\C/C=C\CCCCCCCCOCC(COCCCCCCCC/C=C\C/C=C\CCCCC)CN1CCN(C)CC1 [Example 23, 1-methyl-4-(3-((9Z,12Z)-octadeca-9,12-dienyloxy)-2-(((9Z,12Z)-octadeca-9,12-dienyloxy)methyl)propyl)piperazine] |  |  | 98.1 |  | % Encapsulation Efficiency [1, 6]: 93.2%; PDI (size distribution) [3, 6]: 0.054; Size [3, 6]: 116 nm
CCCCC/C=C\C/C=C\CCCCCCCCOCC(COCCCCCCCC/C=C\C/C=C\CCCCC)NCc1cccc(CN2CCCC2)c1 [Example 13, N-(2-((9Z,12Z)-octadeca-9,12-dienyloxy)-1-(((9Z,12Z)-octadeca-9,12-dienyloxy)methyl)ethyl)-N-(3-(pyrrolidin-1-ylmethyl)benzyl)amine] | 97.1 | 146 |  |  | 
CCCCC/C=C\C/C=C\CCCCCCCCOCC(COCCCCCCCC/C=C\C/C=C\CCCCC)NCCCn1ccnc1 [Example 3, N-(3-(1H-imidazol-1-yl)propyl)-N-(2-((9Z,12Z)-octadeca-9,12-dienyloxy)-1-(((9Z,12Z)-octadeca-9,12-dienyloxy)methyl)ethyl)amine] |  |  |  |  | % Encapsulation Efficiency [1, 6]: 87.6%; Size [3, 6]: 185 nm
CCCCC/C=C\C/C=C\CCCCCCCCOCC(COCCCCCCCC/C=C\C/C=C\CCCCC)NCc1cccnc1N1CCCC1 [Example 20, N-(2-((9Z,12Z)-octadeca-9,12-dienyloxy)-1-(((9Z,12Z)-octadeca-9,12-dienyloxy)methyl)ethyl)-N-((2-pyrrolidin-1-ylpyridin-3-yl)methyl)amine] | 55.9 | 134 |  |  | 
CCCCC/C=C\C/C=C\CCCCCCCCOCC(COCCCCCCCC/C=C\C/C=C\CCCCC)NCC1CCN(C)CC1 [Example 12, N-((1-methylpiperidin-4-yl)methyl)-N-(2-((9Z,12Z)-octadeca-9,12-dienyloxy)-1-(((9Z,12Z)-octadeca-9,12-dienyloxy)methyl)ethyl)amine] |  |  | 84.9 | 119.8 | 
CCCCCCCC/C=C\CCCCCCCCOCC(COCCCCCCCC/C=C\CCCCCCCC)NCCCN1CCCC1 [Example 53, N-(2-[(9Z)-octadec-9-enyloxy]-1-{[(9Z)-octadec-9-enyloxy]methyl}ethyl)-N-(3-pyrrolidin-1-ylpropyl)amine] |  |  | 99.0 |  | % Encapsulation Efficiency [1, 7]: 99.0%; PDI (size distribution) [3, 7]: 0.089; Size [3, 7]: 121.2 nm

Further lines, with some results ahead:

% Encapsulation Efficiency [1, 4] [%] | Size [2, 4] [nm] | % Encapsulation Efficiency [1, 5] [%] | Size [2, 5] [nm] | SMILES | also measured
 |  | 87.1 | 121.8 | CCCCC/C=C\C/C=C\CCCCCCCCOCC(COCCCCCCCC/C=C\C/C=C\CCCCC)N(C)CCCN(C)C [Example 17, N,N,N′-trimethyl-N′-(2-((9Z,12Z)-octadeca-9,12-dienyloxy)-1-(((9Z,12Z)-octadeca-9,12-dienyloxy)methyl)ethyl)propane-1,3-diamine] | 
 |  | 72.6 | 112 | CCCCC/C=C\C/C=C\CCCCCCCCOCC(COCCCCCCCC/C=C\C/C=C\CCCCC)N1CCN(CCCN(C)C)CC1 [Example 10, N,N-dimethyl-N-(3-(4-(2-((9Z,12Z)-octadeca-9,12-dienyloxy)-1-(((9Z,12Z)-octadeca-9,12-dienyloxy)methyl)ethyl)piperazin-1-yl)propyl)amine] | 
96.0 | 132 |  |  | CCCCC/C=C\C/C=C\CCCCCCCCOCC(N)COCCCCCCCC/C=C\C/C=C\CCCCC [Example 11, 1,3-bis((9Z,12Z)-octadeca-9,12-dienyloxy)propan-2-amine] | 
 |  | 88.3 | 128.4 | CCCCC/C=C\C/C=C\CCCCCCCCOCC(COCCCCCCCC/C=C\C/C=C\CCCCC)N(C)CCCN1CCCC1 [Example 14, N-methyl-N-(2-((9Z,12Z)-octadeca-9,12-dienyloxy)-1-(((9Z,12Z)-octadeca-9,12-dienyloxy)methyl)ethyl)-N-(3-pyrrolidin-1-ylpropyl)amine] | 
